Assay results as given in patent US20040024024A1, “Aromatic sulfone hydroxamates and their use as protease inhibitors” (priority 2001, published 2004).
pIC50: −log10 of the molar value.

biological target: T1, Human recombinant MMP-2 (Homo sapiens, UniProt P08253); assay: In vitro MMP inhibition, IC50 determination (fluorogenic substrate I); assay type: biochemical; conditions: value outside parenthesis
T1 construct: made in house; host or cells: MMP-2-transfected p2AHT2 cells
T1 sequence (P08253 110-660): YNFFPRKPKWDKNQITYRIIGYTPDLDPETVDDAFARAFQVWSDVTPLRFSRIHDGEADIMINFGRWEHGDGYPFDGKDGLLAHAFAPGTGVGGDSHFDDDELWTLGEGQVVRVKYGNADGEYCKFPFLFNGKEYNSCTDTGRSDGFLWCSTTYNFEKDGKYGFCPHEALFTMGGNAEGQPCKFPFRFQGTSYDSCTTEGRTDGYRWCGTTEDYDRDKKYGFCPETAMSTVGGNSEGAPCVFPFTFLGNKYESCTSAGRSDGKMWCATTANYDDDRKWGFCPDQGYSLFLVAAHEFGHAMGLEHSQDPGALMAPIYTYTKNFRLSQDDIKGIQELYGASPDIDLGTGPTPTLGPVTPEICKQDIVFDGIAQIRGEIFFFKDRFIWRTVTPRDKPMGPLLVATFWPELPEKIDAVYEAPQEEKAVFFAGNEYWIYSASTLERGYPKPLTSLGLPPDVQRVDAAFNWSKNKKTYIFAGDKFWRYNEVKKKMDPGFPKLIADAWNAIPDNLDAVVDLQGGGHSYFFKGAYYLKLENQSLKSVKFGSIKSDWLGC
Procedure, shortened: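 APMA- or trypsin-activated recombinant MMP-2 was incubated at room temperature with serial inhibitor dilutions in Tris buffer pH 7.5 (100 mM NaCl, 10 mM CaCl2, 0.05% Brij), with DMSO from 1% stocks, and 4 μM substrate I. Cleavage was read by fluorescence at 328/415 nm; IC50 was taken from the loss of fluorescence versus inhibitor concentration.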

Row | Compound | pIC50
1 | O=C(NO)C1(S(=O)(=O)c2ccc(OCCCc3nc(-c4ccc(OC(F)(F)F)cc4)no3)cc2)CCN(Cc2ccccc2)CC1 [Example 93] | 6.13
2 | CC(C)c1ccc(-c2cccc(CCOc3ccc(S(=O)(=O)C4(C(=O)NO)CCOCC4)cc3)c2)cc1 [Example 109] | 5.27
3 | O=C(NO)C1(S(=O)(=O)c2ccc(OCCc3cccc(-c4cc(F)cc(F)c4)c3)cc2)CCOCC1 [Example 110] | 5.92
4 | O=C(NO)C1(S(=O)(=O)c2ccc(OCCc3cccc(-c4cccc(F)c4)c3)cc2)CCOCC1 [Example 111] | 6.25
5 | O=C(NO)C1(S(=O)(=O)c2ccc(OCCc3cccc(-c4ccc(OC(F)(F)F)cc4)c3)cc2)CCOCC1 [Example 112] | 7.18
6 | O=C(NO)C1(S(=O)(=O)c2ccc(OCCc3cccc(-c4ccccc4Cl)c3)cc2)CCOCC1 [Example 114] | 6.00
7 | Cc1ccccc1-c1cccc(CCOc2ccc(S(=O)(=O)C3(C(=O)NO)CCOCC3)cc2)c1 [Example 116] | 5.98
8 | Cc1ccc(-c2cccc(CCOc3ccc(S(=O)(=O)C4(C(=O)NO)CCOCC4)cc3)c2)cc1C [Example 117] | 5.76
9 | Cc1cc(-c2cccc(CCOc3ccc(S(=O)(=O)C4(C(=O)NO)CCOCC4)cc3)c2)ccc1Cl [Example 118] | 5.73
10 | COc1ccc(-c2cccc(CCOc3ccc(S(=O)(=O)C4(C(=O)NO)CCOCC4)cc3)c2)cc1C [Example 119] | 5.93
11 | O=C(NO)C1(S(=O)(=O)c2ccc(OCCc3cccc(-c4ccc(Cl)c(Cl)c4)c3)cc2)CCOCC1 [Example 121] | 5.61
12 | O=C(NO)C1(S(=O)(=O)c2ccc(OCCc3cccc(-c4ccc(Cl)cc4Cl)c3)cc2)CCOCC1 [Example 124] | 5.67
13 | O=C(NO)C1(S(=O)(=O)c2ccc(OCCc3cccc(-c4cc(Cl)cc(Cl)c4)c3)cc2)CCOCC1 [Example 126] | 5.49
14 | COCCN1CCC(C(=O)NO)(S(=O)(=O)c2ccc(OCCCc3nc(-c4ccc(CC(C)C)cc4C)no3)cc2)CC1 [Example 128] | 6.18
15 | NC(=O)c1cccc(-c2noc(CCCOc3ccc(S(=O)(=O)C4(C(=O)NO)CCN(C5CC5)CC4)cc3)n2)c1 [Example 129] | 7.38
16 | COCCN1CCC(C(=O)NO)(S(=O)(=O)c2ccc(OCCCc3nc(-c4ccc(Br)cc4C)no3)cc2)CC1 [Example 135] | 7.61
17 | O=C(NO)C1(S(=O)(=O)c2ccc(OCCCc3nc(C4CCCCC4)no3)cc2)CCN(C2CC2)CC1 [Example 137] | 7.69
18 | Cc1cc(-c2cccc(CCCOc3ccc(S(=O)(=O)C4(C(=O)NO)CCOCC4)cc3)c2)ccc1Cl [Example 166] | 5.51
19 | Cc1cc(-c2cccc(CCCOc3ccc(S(=O)(=O)C4(C(=O)NO)CCOCC4)cc3)c2)ccc1F [Example 168] | 5.46
20 | O=C(NO)C1(S(=O)(=O)c2ccc(OCCCc3cccc(-c4ccc(Cl)c(Cl)c4)c3)cc2)CCOCC1 [Example 169] | 5.36
21 | O=C(NO)C1(S(=O)(=O)c2ccc(OCCCc3cccc(-c4ccc(F)c(F)c4)c3)cc2)CCOCC1 [Example 170] | 5.79
22 | O=C(NO)C1(S(=O)(=O)c2ccc(OCCCc3cccc(-c4ccc(Cl)cc4Cl)c3)cc2)CCOCC1 [Example 171] | 5.64
23 | O=C(NO)C1(S(=O)(=O)c2ccc(OCCCc3cccc(-c4cc(Cl)cc(Cl)c4)c3)cc2)CCOCC1 [Example 172] | 5.29
24 | CCCCc1ccc(-c2noc(CCCOc3ccc(S(=O)(=O)C4(C(=O)NO)CCOCC4)cc3)n2)c(C)c1 [Example 183] | 6.15
25 | COCCN1CCC(C(=O)NO)(S(=O)(=O)c2ccc(OCCCc3nc(-c4ccc(C5(c6ccccc6)CC5)cc4)no3)cc2)CC1 [Example 185] | 7.07
26 | COCCN1CCC(C(=O)NO)(S(=O)(=O)c2ccc(OCCCc3nc(-c4cccc5ccccc45)no3)cc2)CC1 [Example 199] | 6.88
